Test results published in the NIST ThermoML archive (doi:10.1021/je400529k).
Where “and” joins values, the source holds several entries; their conditions need not be identical. Identical values can stand only once. ± gives the expanded uncertainty stated by the source.

Legend:
[1] = xn = mol fraction of the nth substance listed; conditions: 101 kPa, Liquid; for viscosity: Capillary tube (Ostwald / Ubbelohde) method; for mass density: Vibrating tube method
[2] = refractive index (Na D-line) (dimensionless); xn = mol fraction of the nth substance listed; conditions: 101 kPa, Liquid, Standard Abbe refractometry
[3] = refractive index (Na D-line) (dimensionless); conditions: 101.33 kPa, Liquid, Standard Abbe refractometry
[4] = 101 kPa, Liquid; for viscosity: Capillary tube (Ostwald / Ubbelohde) method; for mass density: Vibrating tube method

| SMILES | refractive index ([3]; 293.15 K) | refractive index ([3]; 303.15 K) | refractive index ([3]; 313.15 K) | viscosity ([4]; 293.15 K) | mass density ([4]; 293.15 K) | viscosity ([4]; 298.15 K) | mass density ([4]; 298.15 K) | viscosity ([4]; 303.15 K) | mass density ([4]; 303.15 K) | viscosity ([4]; 308.15 K) | mass density ([4]; 308.15 K) | viscosity ([4]; 313.15 K) | mass density ([4]; 313.15 K) | viscosity ([4]; 318.15 K) | mass density ([4]; 318.15 K) | further results |
| --- | --- | --- | --- | --- | --- | --- | --- | --- | --- | --- | --- | --- | --- | --- | --- | --- |
| CCCCC1CCCCC1 [butylcyclohexane] + C1C[C@@H]2[C@H]3CC[C@H](C3)[C@@H]2C1 | – | – | – | – | – | – | – | – | – | – | – | – | – | – | – | viscosity ([1]; 293.15 K, x2 = 0): 1.302 ± 0.011 mPa·s; mass density ([1]; 293.15 K, x2 = 0): 799.47 ± 0.15 kg/m3; viscosity ([1]; 298.15 K, x2 = 0): 1.2 ± 0.011 mPa·s; mass density ([1]; 298.15 K, x2 = 0): 795.71 ± 0.15 kg/m3; viscosity ([1]; 303.15 K, x2 = 0): 1.111 ± 0.01 mPa·s; mass density ([1]; 303.15 K, x2 = 0): 791.96 ± 0.15 kg/m3; viscosity ([1]; 308.15 K, x2 = 0): 1.032 ± 0.01 mPa·s; mass density ([1]; 308.15 K, x2 = 0): 788.2 ± 0.15 kg/m3; viscosity ([1]; 313.15 K, x2 = 0): 0.962 ± 0.01 mPa·s; mass density ([1]; 313.15 K, x2 = 0): 784.43 ± 0.15 kg/m3; viscosity ([1]; 318.15 K, x2 = 0): 0.899 ± 0.01 mPa·s; mass density ([1]; 318.15 K, x2 = 0): 780.65 ± 0.15 kg/m3; refractive index ([2]; 293.15 K, x2 = 0): 1.4399 ± 0.001; refractive index ([2]; 303.15 K, x2 = 0): 1.4354 ± 0.001; refractive index ([2]; 313.15 K, x2 = 0): 1.4311 ± 0.001 |
| C1CCCCC1 [cyclohexane] | 1.4256 ± 0.001 | 1.4205 ± 0.001 | 1.4143 ± 0.001 | 0.977 ± 0.01 mPa·s | 778.51 ± 0.15 kg/m3 | 0.898 ± 0.01 mPa·s | 773.84 ± 0.15 kg/m3 | 0.828 ± 0.009 mPa·s | 769.11 ± 0.15 kg/m3 | 0.766 ± 0.009 mPa·s | 764.36 ± 0.15 kg/m3 | 0.712 ± 0.009 mPa·s | 759.57 ± 0.15 kg/m3 | 0.664 ± 0.009 mPa·s | – | – |
| CC1CCC(C)C(C)C1 (stereo not drawn) [1,2,4-trimethylcyclohexane] | 1.4331 ± 0.0011 | 1.4285 ± 0.0011 | 1.424 ± 0.0011 | 0.886 ± 0.012 mPa·s | 790.8 ± 0.39 kg/m3 | 0.827 ± 0.011 mPa·s | 786.92 ± 0.39 kg/m3 | 0.774 ± 0.011 mPa·s | 783.03 ± 0.39 kg/m3 | 0.727 ± 0.011 mPa·s | 779.13 ± 0.39 kg/m3 | 0.686 ± 0.01 mPa·s | 775.23 ± 0.39 kg/m3 | 0.648 ± 0.01 mPa·s | 771.32 ± 0.39 kg/m3 | – |
| C1C[C@@H]2[C@H]3CC[C@H](C3)[C@@H]2C1 [exo-tetrahydrodicyclopentadiene] | 1.4874 ± 0.001 | 1.4831 ± 0.001 | 1.4786 ± 0.001 | 2.992 ± 0.02 mPa·s | 935.72 ± 0.15 kg/m3 | 2.71 ± 0.018 mPa·s | 931.84 ± 0.15 kg/m3 | 2.467 ± 0.017 mPa·s | 927.94 ± 0.15 kg/m3 and 927.9 ± 0.2 kg/m3 | 2.255 ± 0.016 mPa·s | 924.02 ± 0.15 kg/m3 | 2.069 ± 0.015 mPa·s | 920.11 ± 0.15 kg/m3 | 1.907 ± 0.014 mPa·s | 916.18 ± 0.15 kg/m3 | – |
| CC1CCCCC1 [methylcyclohexane] + C1C[C@@H]2[C@H]3CC[C@H](C3)[C@@H]2C1 | – | – | – | – | – | – | – | – | – | – | – | – | – | – | – | viscosity ([1]; 293.15 K, x2 = 0): 0.733 ± 0.009 mPa·s; mass density ([1]; 293.15 K, x2 = 0): 769.35 ± 0.15 kg/m3; viscosity ([1]; 298.15 K, x2 = 0): 0.687 ± 0.009 mPa·s; mass density ([1]; 298.15 K, x2 = 0): 765.04 ± 0.15 kg/m3; viscosity ([1]; 303.15 K, x2 = 0): 0.646 ± 0.009 mPa·s; mass density ([1]; 303.15 K, x2 = 0): 760.71 ± 0.15 kg/m3; viscosity ([1]; 308.15 K, x2 = 0): 0.609 ± 0.009 mPa·s; mass density ([1]; 308.15 K, x2 = 0): 756.36 ± 0.15 kg/m3; viscosity ([1]; 313.15 K, x2 = 0): 0.576 ± 0.009 mPa·s; mass density ([1]; 313.15 K, x2 = 0): 751.99 ± 0.16 kg/m3; viscosity ([1]; 318.15 K, x2 = 0): 0.546 ± 0.009 mPa·s; mass density ([1]; 318.15 K, x2 = 0): 747.6 ± 0.16 kg/m3; refractive index ([2]; 293.15 K, x2 = 0): 1.422 ± 0.001; refractive index ([2]; 303.15 K, x2 = 0): 1.4172 ± 0.001; refractive index ([2]; 313.15 K, x2 = 0): 1.4118 ± 0.001 |
| C1C[C@@H]2[C@H]3CC[C@H](C3)[C@@H]2C1 [exo-tetrahydrodicyclopentadiene] + CC1CCC(C)C(C)C1 | – | – | – | – | – | – | – | – | – | – | – | – | – | – | – | viscosity ([1]; 293.15 K, x1 = 1): 2.992 ± 0.02 mPa·s; mass density ([1]; 293.15 K, x1 = 1): 935.72 ± 0.15 kg/m3; viscosity ([1]; 298.15 K, x1 = 1): 2.71 ± 0.018 mPa·s; mass density ([1]; 298.15 K, x1 = 1): 931.84 ± 0.15 kg/m3; viscosity ([1]; 303.15 K, x1 = 1): 2.467 ± 0.017 mPa·s; mass density ([1]; 303.15 K, x1 = 1): 927.94 ± 0.15 kg/m3; viscosity ([1]; 308.15 K, x1 = 1): 2.255 ± 0.016 mPa·s; mass density ([1]; 308.15 K, x1 = 1): 924.02 ± 0.15 kg/m3; viscosity ([1]; 313.15 K, x1 = 1): 2.069 ± 0.015 mPa·s; mass density ([1]; 313.15 K, x1 = 1): 920.11 ± 0.15 kg/m3; viscosity ([1]; 318.15 K, x1 = 1): 1.907 ± 0.014 mPa·s; mass density ([1]; 318.15 K, x1 = 1): 916.18 ± 0.15 kg/m3; refractive index ([2]; 293.15 K, x1 = 1): 1.4874 ± 0.001; refractive index ([2]; 303.15 K, x1 = 1): 1.4831 ± 0.001; refractive index ([2]; 313.15 K, x1 = 1): 1.4786 ± 0.001 |
| CCC1CCCCC1 [ethylcyclohexane] | 1.4319 ± 0.001 | 1.4276 ± 0.001 | 1.4225 ± 0.001 | 0.845 ± 0.009 mPa·s | 788.02 ± 0.15 kg/m3 | 0.791 ± 0.009 mPa·s | 784.01 ± 0.15 kg/m3 | 0.743 ± 0.009 mPa·s | 779.98 ± 0.15 kg/m3 | 0.7 ± 0.009 mPa·s | 775.93 ± 0.15 kg/m3 | 0.661 ± 0.009 mPa·s | 771.86 ± 0.15 kg/m3 | 0.626 ± 0.009 mPa·s | 767.78 ± 0.15 kg/m3 | – |
| CCCCC1CCCCC1 [butylcyclohexane] | 1.4399 ± 0.001 | 1.4354 ± 0.001 | 1.4311 ± 0.001 | 1.302 ± 0.011 mPa·s | 799.47 ± 0.15 kg/m3 | 1.2 ± 0.011 mPa·s | 795.71 ± 0.15 kg/m3 | 1.111 ± 0.01 mPa·s | 791.96 ± 0.15 kg/m3 | 1.032 ± 0.01 mPa·s | 788.2 ± 0.15 kg/m3 | 0.962 ± 0.01 mPa·s | 784.43 ± 0.15 kg/m3 | 0.899 ± 0.01 mPa·s | 780.65 ± 0.15 kg/m3 | – |
| CC1CCCCC1 [methylcyclohexane] | 1.422 ± 0.001 | 1.4172 ± 0.001 | 1.4118 ± 0.001 | 0.733 ± 0.009 mPa·s | 769.35 ± 0.15 kg/m3 | 0.687 ± 0.009 mPa·s | 765.04 ± 0.15 kg/m3 | 0.646 ± 0.009 mPa·s | 760.71 ± 0.15 kg/m3 | 0.609 ± 0.009 mPa·s | 756.36 ± 0.15 kg/m3 | 0.576 ± 0.009 mPa·s | 751.99 ± 0.16 kg/m3 | 0.546 ± 0.009 mPa·s | 747.6 ± 0.16 kg/m3 | – |
| C1CCCCC1 [cyclohexane] + C1C[C@@H]2[C@H]3CC[C@H](C3)[C@@H]2C1 | – | – | – | – | – | – | – | – | – | – | – | – | – | – | – | viscosity ([1]; 293.15 K, x2 = 0): 0.977 ± 0.01 mPa·s; mass density ([1]; 293.15 K, x2 = 0): 778.51 ± 0.15 kg/m3; viscosity ([1]; 298.15 K, x2 = 0): 0.898 ± 0.01 mPa·s; mass density ([1]; 298.15 K, x2 = 0): 773.84 ± 0.15 kg/m3; viscosity ([1]; 303.15 K, x2 = 0): 0.828 ± 0.009 mPa·s; mass density ([1]; 303.15 K, x2 = 0): 769.11 ± 0.15 kg/m3; viscosity ([1]; 308.15 K, x2 = 0): 0.766 ± 0.009 mPa·s; mass density ([1]; 308.15 K, x2 = 0): 764.36 ± 0.15 kg/m3; viscosity ([1]; 313.15 K, x2 = 0): 0.712 ± 0.009 mPa·s; mass density ([1]; 313.15 K, x2 = 0): 759.57 ± 0.15 kg/m3; viscosity ([1]; 318.15 K, x2 = 0): 0.664 ± 0.009 mPa·s; refractive index ([2]; 293.15 K, x2 = 0): 1.4256 ± 0.001; refractive index ([2]; 303.15 K, x2 = 0): 1.4205 ± 0.001; refractive index ([2]; 313.15 K, x2 = 0): 1.4143 ± 0.001 |
| C1C[C@@H]2[C@H]3CC[C@H](C3)[C@@H]2C1 [exo-tetrahydrodicyclopentadiene] + CCC1CCCCC1 | – | – | – | – | – | – | – | – | – | – | – | – | – | – | – | viscosity ([1]; 293.15 K, x1 = 1): 2.992 ± 0.02 mPa·s; mass density ([1]; 293.15 K, x1 = 1): 935.72 ± 0.15 kg/m3; viscosity ([1]; 298.15 K, x1 = 1): 2.71 ± 0.018 mPa·s; mass density ([1]; 298.15 K, x1 = 1): 931.84 ± 0.15 kg/m3; viscosity ([1]; 303.15 K, x1 = 1): 2.467 ± 0.017 mPa·s; mass density ([1]; 303.15 K, x1 = 1): 927.9 ± 0.2 kg/m3; viscosity ([1]; 308.15 K, x1 = 1): 2.255 ± 0.016 mPa·s; mass density ([1]; 308.15 K, x1 = 1): 924.02 ± 0.15 kg/m3; viscosity ([1]; 313.15 K, x1 = 1): 2.069 ± 0.015 mPa·s; mass density ([1]; 313.15 K, x1 = 1): 920.11 ± 0.15 kg/m3; viscosity ([1]; 318.15 K, x1 = 1): 1.907 ± 0.014 mPa·s; mass density ([1]; 318.15 K, x1 = 1): 916.18 ± 0.15 kg/m3; refractive index ([2]; 293.15 K, x1 = 1): 1.4874 ± 0.001; refractive index ([2]; 303.15 K, x1 = 1): 1.4831 ± 0.001; refractive index ([2]; 313.15 K, x1 = 1): 1.4786 ± 0.001 |
